Molecular target: T1, KCNQ2/3 channels (Homo sapiens, UniProt O43525+O43526)
T1 construct: expressed in transfected cells; host or cells: CHO-K1
Test: Fluorescence assay using a voltage-sensitive dye (fluorimetry)
Assay type: cell-based
Conditions: CHO-K1 cells expressing KCNQ2/3; for EC50: agonistic activity; for Emax: relative to retigabine = 100%, negative values = antagonistic, read-out: Fluorimetry % efficacy (I/EC50, retigabine = 100%)
Description: Pharmacological Experiments Fluorescence Assay Using a Voltage-Sensitive Dye
Human CHO-K1 cells expressing KCNQ2/3 channels are cultivated adherently at 37° C., 5% CO2 and 95% humidity in cell culture bottles (e.g. 80 cm^2 TC flasks, Nunc) with DMEM-high glucose (Sigma Aldrich, D7777) including 10% FCS (PAN Biotech, e.g. 3302-P270521) or alternatively MEM Alpha Medium (1×, liquid, Invitrogen, #22571), 10% foetal calf serum (FCS) (Invitrogen, #10270-106, heat-inactivated) and the necessary selection antibiotics.
Before being seeded out for the measurements, the cells are washed with a 1×DPBS buffer without Ca^2+/Mg^2+ (e.g. Invitrogen, #14190-094) and detached from the bottom of the culture vessel by means of Accutase (PAA Laboratories, #L11-007) (incubation with Accutase for 15 min at 37° C.). The cell count then present is determined using a CASY™ cell counter (TCC model, Schärfe System) in order subsequently to apply 20,000 to 30,000 cells/well/100 μl of the described nutrient medium, depending on density optimisation for the individual cell line, to 96-well measuring plates of the Corning™ CellBIND™ type (flat clear-bottom black polystyrene microplates, #3340). Incubation is then carried out for one hour at room temperature, without gassing or adjusting the humidity, followed by incubation for 24 hours at 37° C., 5% CO2 and 95% humidity.
The voltage-sensitive fluorescent dye from the Membrane Potential Assay Kit (Red™ bulk format part R8123 for FLIPR, MDS Analytical Technologies™) is prepared by dissolving the contents of a vessel of Membrane Potential Assay Kit Red Component A in 200 ml of extracellular buffer (ES buffer, 120 mM NaCl, 1 mM KCl, 10 mM HEPES, 2 mM CaCl2, 2 mM MgCl2, 10 mM glucose; pH 7.4). After removal of the nutrient medium, the cells are washed with 200 μl of ES buffer, then covered with a layer of 100 μl of the dye solution prepared above and incubated for 45 min at room temperature with exclusion of light.
The fluorescence measurements are carried out with a BMG Labtech FLUOstar™, BMG Labtech NOVOstar™ or BMG Labtech POLARstar™ instrument (525 nm excitation, 560 nm emission, bottom-read mode). After incubation of the dye, 50 μl of the substances to be tested in the desired concentrations, or 50 μl of ES buffer for control purposes, are introduced into separate cavities of the measuring plate and incubated for 30 min at room temperature whilst being shielded from light. The fluorescence intensity of the dye is then measured for 5 min and the fluorescence value F1 of each well is thus determined at a given, constant time. 15 μl of a […] KCl solution […] are then added to each well. The change in fluorescence is subsequently measured until all relevant measured values have been obtained (mainly […]). At a given time after KCl application, a fluorescence value F2 is determined, in this case at the time of the fluorescence peak.
For calculation, the fluorescence intensity F2 is compared with the fluorescence intensity F1, and the agonistic activity of the target compound on the potassium channel is determined therefrom. F2 and F1 are calculated as follows: […]
In order to determine whether a substance has an agonistic activity,
[formula] is determined by adding to the reaction batch only the buffer solution instead of the substance to be tested, determining the value F1K of the fluorescence intensity, adding the potassium ions as described above and measuring a value F2K of the fluorescence intensity. Then F2K and F1K are calculated as follows: […]
A substance has an agonistic activity on the potassium channel if
Independently of the comparison of
[formula] it is also possible to conclude that a target compound has an agonistic activity if an increase in
[formula] is to be observed as the dosage of the target compound increases.
Calculations of EC50 values are carried out with the aid of Prism v4.0 software (GraphPad Softwares™).

In the case of O=C(Cc1cc2ccccc2s1)Nc1cccnc1SCCS(=O)(=O)c1cccc(C(F)(F)F)c1 [Example 59, 2-(Benzo[b]thiophen-2-yl)-N-[2-[2-[[3-(trifluoromethyl)phenyl]sulfonyl]-ethylsulfanyl]-pyridin-3-yl]acetamide], the EC50 is reported as 925 nM and the Emax is reported as 139%.

O=C(CC1CC2CCC1C2)Nc1cccnc1SCCS(=O)(=O)c1cccc(C(F)(F)F)c1 (stereo not drawn) [Example 62, 2-(5-Bicyclo[2.2.1]heptanyl)-N-[2-[2-[[3-(trifluoromethyl)phenyl]sulfonyl]-ethylsulfanyl]-pyridin-3-yl]acetamide] was tested, and the EC50 was 23.5 nM and the Emax was 168%.

Molecule O=C(CCC1CCc2ccccc2C1)Nc1cccnc1SCCS(=O)(=O)c1cccc(C(F)(F)F)c1 (stereo not drawn) [Example 57, 3-(1,2,3,4-Tetrahydronaphthalen-2-yl)-N-[2-[2-[[3-(trifluoromethyl)phenyl]sulfonyl]-ethylsulfanyl]-pyridin-3-yl]propionamide] has an EC50 of 56.5 nM and an Emax of 134%.

Molecule O=C(Nc1cccnc1SCCS(=O)(=O)c1cccc(C(F)(F)F)c1)C1CCCOC1 (stereo not drawn) [Example 38, N-[2-[2-[[3-(Trifluoromethyl)phenyl]sulfonyl]-ethylsulfanyl]-pyridin-3-yl]-tetrahydropyrane-3-carboxylic acid amide] has an Emax of 35%.

O=C(Nc1cccnc1SCCS(=O)(=O)c1cccc(C(F)(F)F)c1)c1ccc(Cl)nc1 [Example 35, 6-Chloro-N-[2-[2-[[3-(trifluoromethyl)phenyl]sulfonyl]-ethylsulfanyl]-pyridin-3-yl]-pyridine-3-carboxylic acid amide] showed an Emax of 43%.

O=C(Nc1cccnc1SCCS(=O)(=O)c1cccc(C(F)(F)F)c1)C1CCCCC1 [Example 19, N-[2-[2-[[3-(Trifluoromethyl)phenyl]sulfonyl]-ethylsulfanyl]-pyridin-3-yl]-cyclohexane carboxylic acid amide] was tested, and the Emax was -43%.

Molecule O=C(/C=C/c1ccc(F)cc1)Nc1cccnc1SCCS(=O)(=O)c1cccc(C(F)(F)F)c1 [Example 31, (E)-3-(4-Fluorophenyl)-N-[2-[2-[[3-(trifluoromethyl)phenyl]sulfonyl]-ethylsulfanyl]-pyridin-3-yl]acrylamide] has an EC50 of 841 nM and an Emax of 109%.

With O=C(Nc1cccnc1SCCS(=O)(=O)c1ccccc1)c1ccc(F)c(F)c1 [Example 5, N-[2-[2-(Benzenesulfonyl)-ethylsulfanyl]-pyridin-3-yl]-3,4-difluorobenzamide] the EC50 was 469 nM and the Emax was 129%.

O=C(CC1CCCCCC1)Nc1cccnc1SCCS(=O)(=O)c1ccc(F)cc1 [Example 67, 2-Cycloheptyl-N-[2-[2-[(4-fluorophenyl)sulfonyl]-ethylsulfanyl]-pyridin-3-yl]acetamide] showed an EC50 of 18 nM and an Emax of 114%.

O=C(CC1CCCCC1)Nc1cccnc1SCCSc1ccccc1 [Example 44, 2-Cyclohexyl-N-[2-(2-phenylsulfanyl-ethylsulfanyl)-pyridin-3-yl]acetamide] showed an EC50 of 153 nM and an Emax of 80%.

Work on O=C(Nc1cccnc1SCCOc1ccc(F)cc1)c1ccc(F)c(F)c1 [Example 64, 3,4-Difluoro-N-[2-[2-(4-fluorophenoxy)-ethylsulfanyl]-pyridin-3-yl]benzamide] yielded an EC50 of 200 nM and an Emax of 49%.

Cc1cc(C)cc(C(C)C(=O)Nc2cccnc2SCCS(=O)(=O)c2ccccc2)c1 (stereo not drawn) [Example 8, N-[2-[2-(Benzenesulfonyl)-ethylsulfanyl]-pyridin-3-yl]-2-(3,5-dimethylphenyl)propionamide] showed an IC50 (antagonistic activity) of 322 nM and an Emax of -68%.

Work on O=C(CC1CCOCC1)Nc1cccnc1SCCS(=O)(=O)c1cccc(C(F)(F)F)c1 [Example 40, 2-Tetrahydropyran-4-yl-N-[2-[2-[[3-(trifluoromethyl)phenyl]sulfonyl]-ethylsulfanyl]-pyridin-3-yl]acetamide] yielded an Emax of 52%.

For O=C(CC1CCCCC1)Nc1cccnc1SCCS(=O)(=O)c1ccccc1 [Example 1, N-[2-[2-(Benzenesulfonyl)-ethylsulfanyl]-pyridin-3-yl]-2-cyclohexyl acetamide], the EC50 was 95 nM and the Emax was 172%.

From patent US8247573B2, “Substituted N-(2-mercaptopyridin-3-yl)amides as KCNQ2/3 modulators” (Gruenenthal GmbH, priority 2009, dated 2012)
